Assay results: US20230074545A1, “TREATMENT OF CANCER WITH CDK12/13 INHIBITORS” (Kinnate Biopharma Inc., priority 2019, published 2023)

Tests used:
Assay in all cases: Radiometric kinase panel
Type in all cases: biochemical
CDK1/CycE1 = biological target: T1, CDK1/CycE1 (Homo sapiens, UniProt P06493)
T1 construct: either as full-length or enzymatically active fragments; purchased ProQinase GmbH (Reaction Biology); host or cells: Sf9 insect cells or E. coli
How it was run: (§1)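 Activity was measured radiometrically from [gamma-33P]-ATP incorporation into substrate. The kinases were recombinant human GST- or His-tagged proteins, full-length or active fragments, expressed in Sf9 or E. coli. Compound in 10% DMSO was added before the enzyme/substrate mix, which started the reaction.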

PAK7 = biological target: T2, PAK7 (Homo sapiens, UniProt Q9P286)
T2 construct: either as full-length or enzymatically active fragments; purchased ProQinase GmbH (Reaction Biology); host or cells: Sf9 insect cells or E. coli
T2 sequence (Q9P286 whole entry, the tested form may be a part): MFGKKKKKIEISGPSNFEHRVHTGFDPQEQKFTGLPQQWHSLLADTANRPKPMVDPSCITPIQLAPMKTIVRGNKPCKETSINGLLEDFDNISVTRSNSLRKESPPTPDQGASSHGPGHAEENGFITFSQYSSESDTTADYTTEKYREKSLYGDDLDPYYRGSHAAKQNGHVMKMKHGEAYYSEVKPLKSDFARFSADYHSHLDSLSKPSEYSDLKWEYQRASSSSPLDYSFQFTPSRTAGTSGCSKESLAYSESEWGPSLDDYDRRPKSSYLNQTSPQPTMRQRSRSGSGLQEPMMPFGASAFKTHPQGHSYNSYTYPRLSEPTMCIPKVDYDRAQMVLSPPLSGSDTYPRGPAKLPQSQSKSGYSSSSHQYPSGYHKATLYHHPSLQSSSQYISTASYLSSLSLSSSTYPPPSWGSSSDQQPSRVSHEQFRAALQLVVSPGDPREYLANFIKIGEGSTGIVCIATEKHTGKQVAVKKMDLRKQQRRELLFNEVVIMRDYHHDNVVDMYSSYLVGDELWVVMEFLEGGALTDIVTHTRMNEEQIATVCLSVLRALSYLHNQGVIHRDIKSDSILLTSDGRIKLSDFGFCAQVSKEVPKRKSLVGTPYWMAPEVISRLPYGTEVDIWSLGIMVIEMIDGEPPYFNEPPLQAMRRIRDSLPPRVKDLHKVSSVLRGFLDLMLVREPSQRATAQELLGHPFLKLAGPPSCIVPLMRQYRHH
How it was run: as §1

VRK2 = biological target: T3, VRK2 (Homo sapiens, UniProt Q86Y07)
T3 construct: either as full-length or enzymatically active fragments; purchased ProQinase GmbH (Reaction Biology); host or cells: Sf9 insect cells or E. coli
How it was run: as §1

MAPKAPK5 = biological target: T4, MAPKAPK5 (Homo sapiens, UniProt Q8IW41)
T4 construct: purchased ProQinase GmbH (Reaction Biology)
T4 sequence (Q8IW41 whole entry): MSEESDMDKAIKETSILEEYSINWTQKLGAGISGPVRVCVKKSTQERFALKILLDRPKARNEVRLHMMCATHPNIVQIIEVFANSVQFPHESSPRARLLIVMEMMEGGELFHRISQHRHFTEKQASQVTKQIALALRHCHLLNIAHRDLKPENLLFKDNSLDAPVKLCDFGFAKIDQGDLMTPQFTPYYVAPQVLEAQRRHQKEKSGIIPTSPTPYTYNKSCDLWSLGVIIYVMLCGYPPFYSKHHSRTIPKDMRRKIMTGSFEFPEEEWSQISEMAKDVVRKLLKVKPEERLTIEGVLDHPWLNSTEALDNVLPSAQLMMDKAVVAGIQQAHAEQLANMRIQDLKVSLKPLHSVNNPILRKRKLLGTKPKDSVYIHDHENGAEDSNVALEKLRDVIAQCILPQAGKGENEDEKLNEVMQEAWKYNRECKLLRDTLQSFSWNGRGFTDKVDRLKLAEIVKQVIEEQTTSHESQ
How it was run: as §1

MEK5 = biological target: T5, MEK5 (Homo sapiens, UniProt Q13163)
T5 construct: either as full-length or enzymatically active fragments; purchased ProQinase GmbH (Reaction Biology)
How it was run: as §1

MAP3K9 = biological target: T6, MAP3K9 (Homo sapiens, UniProt P80192)
T6 construct: either as full-length or enzymatically active fragments; purchased ProQinase GmbH (Reaction Biology)
T6 sequence (P80192 whole entry, the tested form may be a part): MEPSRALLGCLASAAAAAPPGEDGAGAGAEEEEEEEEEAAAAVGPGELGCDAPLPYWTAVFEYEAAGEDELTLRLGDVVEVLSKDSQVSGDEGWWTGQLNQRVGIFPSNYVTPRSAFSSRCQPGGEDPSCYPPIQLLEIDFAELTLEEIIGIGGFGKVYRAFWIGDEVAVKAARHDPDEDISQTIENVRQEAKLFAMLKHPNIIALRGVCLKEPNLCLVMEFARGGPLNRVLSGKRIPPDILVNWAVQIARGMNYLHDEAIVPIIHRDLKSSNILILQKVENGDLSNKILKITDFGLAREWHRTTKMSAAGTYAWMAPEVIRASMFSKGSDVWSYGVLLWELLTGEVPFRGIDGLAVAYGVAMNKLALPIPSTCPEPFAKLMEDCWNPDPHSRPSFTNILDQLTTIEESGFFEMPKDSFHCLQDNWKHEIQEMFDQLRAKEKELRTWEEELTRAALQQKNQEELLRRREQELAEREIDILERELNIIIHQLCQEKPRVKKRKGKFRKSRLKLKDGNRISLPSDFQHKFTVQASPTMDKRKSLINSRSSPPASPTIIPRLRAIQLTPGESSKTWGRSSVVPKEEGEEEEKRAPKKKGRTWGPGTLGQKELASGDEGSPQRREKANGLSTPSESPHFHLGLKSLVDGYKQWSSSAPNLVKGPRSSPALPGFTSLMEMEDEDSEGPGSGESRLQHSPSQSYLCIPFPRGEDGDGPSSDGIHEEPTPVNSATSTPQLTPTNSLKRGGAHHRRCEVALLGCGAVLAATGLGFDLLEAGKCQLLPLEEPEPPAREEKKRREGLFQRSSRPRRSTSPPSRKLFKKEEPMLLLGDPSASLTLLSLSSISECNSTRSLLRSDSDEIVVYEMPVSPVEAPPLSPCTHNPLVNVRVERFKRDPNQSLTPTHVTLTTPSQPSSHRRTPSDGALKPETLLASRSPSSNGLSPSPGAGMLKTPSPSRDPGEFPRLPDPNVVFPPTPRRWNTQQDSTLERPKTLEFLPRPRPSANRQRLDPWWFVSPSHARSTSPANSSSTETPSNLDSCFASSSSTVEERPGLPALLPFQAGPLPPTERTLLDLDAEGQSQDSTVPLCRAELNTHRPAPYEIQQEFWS
How it was run: as §1

DCAMKL2 = biological target: T7, DCAMKL2 (Homo sapiens, UniProt Q8N568)
T7 construct: purchased ProQinase GmbH (Reaction Biology); host or cells: Sf9 insect cells or E. coli (not specified per kinase)
How it was run: as §1

PKN3 = biological target: T8, PKN3 (Homo sapiens, UniProt Q6P5Z2)
T8 construct: purchased ProQinase GmbH (Reaction Biology)
How it was run: as §1

CDK13/CycK = biological target: T9, CDK13/CycK (Homo sapiens, UniProt Q14004)
T9 construct: either as full-length or enzymatically active fragments; purchased ProQinase GmbH (Reaction Biology)
How it was run: as §1

BLK = biological target: T10, BLK (Homo sapiens, UniProt P51451)
T10 construct: purchased ProQinase GmbH (Reaction Biology)
How it was run: as §1

TYK2 = biological target: T11, TYK2 (Homo sapiens, UniProt P29597)
T11 construct: either as full-length or enzymatically active fragments; purchased ProQinase GmbH (Reaction Biology)
How it was run: as §1

MAP3K7/MAP3K7IP1 = biological target: T12, MAP3K7/MAP3K7IP1 (Homo sapiens, UniProt O43318)
T12 construct: either as full-length or enzymatically active fragments; purchased ProQinase GmbH (Reaction Biology)
How it was run: as §1

HRI = biological target: T13, HRI (Homo sapiens, UniProt Q9BQI3)
T13 construct: either as full-length or enzymatically active fragments; purchased ProQinase GmbH (Reaction Biology)
How it was run: as §1

PLK3 = biological target: T14, PLK3 (Homo sapiens, UniProt Q9H4B4)
T14 construct: either as full-length or enzymatically active fragments; purchased ProQinase GmbH (Reaction Biology); host or cells: Sf9 insect cells or E. coli
How it was run: as §1

CHK2 = biological target: T15, CHK2 (Homo sapiens, UniProt O96017)
T15 construct: either as full-length or enzymatically active fragments; purchased ProQinase GmbH (Reaction Biology)
How it was run: as §1

S6K = biological target: T16, S6K (Homo sapiens, UniProt P23443)
T16 construct: either as full-length or enzymatically active fragments; purchased ProQinase GmbH (Reaction Biology); host or cells: Sf9 insect cells or E. coli (not specified per kinase)
How it was run: as §1

EEF2K = biological target: T17, EEF2K (Homo sapiens, UniProt O00418)
T17 construct: either as full-length or enzymatically active fragments; purchased ProQinase GmbH (Reaction Biology)
How it was run: as §1

RPS6KA5 = biological target: T18, RPS6KA5 (Homo sapiens, UniProt O75582)
T18 construct: either as full-length or enzymatically active fragments; purchased ProQinase GmbH (Reaction Biology); host or cells: Sf9 insect cells or E. coli (not specified per kinase)
How it was run: as §1

MEKK3 = biological target: T19, MEKK3 (Homo sapiens, UniProt Q99759)
T19 construct: purchased ProQinase GmbH (Reaction Biology); host or cells: Sf9 insect cells or E. coli (not specified per kinase)
How it was run: as §1

CDK2/CycE1 = biological target: T20, CDK2/CycE1 (Homo sapiens, UniProt P24941)
T20 construct: either as full-length or enzymatically active fragments; purchased ProQinase GmbH (Reaction Biology); host or cells: Sf9 insect cells or E. coli (not specified per kinase)
How it was run: as §1

CDK2/CycA2 = biological target: T21, CDK2/CycA2 (Homo sapiens, UniProt P24941)
T21 construct: either as full-length or enzymatically active fragments; purchased ProQinase GmbH (Reaction Biology); host or cells: Sf9 insect cells or E. coli
How it was run: as §1

INSRR = biological target: T22, INSRR (Homo sapiens, UniProt P14616)
T22 construct: either as full-length or enzymatically active fragments; purchased ProQinase GmbH (Reaction Biology)
How it was run: as §1

NEK2 = biological target: T23, NEK2 (Homo sapiens, UniProt P51955)
T23 construct: either as full-length or enzymatically active fragments; purchased ProQinase GmbH (Reaction Biology)
T23 sequence (P51955 whole entry, the tested form may be a part): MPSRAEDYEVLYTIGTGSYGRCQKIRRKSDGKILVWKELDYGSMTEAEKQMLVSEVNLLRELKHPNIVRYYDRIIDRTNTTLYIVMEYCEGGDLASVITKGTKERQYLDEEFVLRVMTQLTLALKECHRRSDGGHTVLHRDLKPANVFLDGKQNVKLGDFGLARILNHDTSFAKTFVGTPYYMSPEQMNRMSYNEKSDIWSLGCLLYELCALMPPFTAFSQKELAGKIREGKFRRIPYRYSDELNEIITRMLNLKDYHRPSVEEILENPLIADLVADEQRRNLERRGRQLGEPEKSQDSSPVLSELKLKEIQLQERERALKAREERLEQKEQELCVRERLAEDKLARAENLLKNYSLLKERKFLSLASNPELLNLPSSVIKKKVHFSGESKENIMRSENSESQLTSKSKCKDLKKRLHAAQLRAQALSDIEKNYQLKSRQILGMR
How it was run: as §1

WNK3 = biological target: T24, WNK3 (Homo sapiens, UniProt Q9BYP7)
T24 construct: either as full-length or enzymatically active fragments; purchased ProQinase GmbH (Reaction Biology)
How it was run: as §1

EIF2AK3 = biological target: T25, EIF2AK3 (Homo sapiens, UniProt Q9NZJ5)
T25 construct: either as full-length or enzymatically active fragments; purchased ProQinase GmbH (Reaction Biology); host or cells: Sf9 insect cells or E. coli
T25 sequence (Q9NZJ5 30-1116): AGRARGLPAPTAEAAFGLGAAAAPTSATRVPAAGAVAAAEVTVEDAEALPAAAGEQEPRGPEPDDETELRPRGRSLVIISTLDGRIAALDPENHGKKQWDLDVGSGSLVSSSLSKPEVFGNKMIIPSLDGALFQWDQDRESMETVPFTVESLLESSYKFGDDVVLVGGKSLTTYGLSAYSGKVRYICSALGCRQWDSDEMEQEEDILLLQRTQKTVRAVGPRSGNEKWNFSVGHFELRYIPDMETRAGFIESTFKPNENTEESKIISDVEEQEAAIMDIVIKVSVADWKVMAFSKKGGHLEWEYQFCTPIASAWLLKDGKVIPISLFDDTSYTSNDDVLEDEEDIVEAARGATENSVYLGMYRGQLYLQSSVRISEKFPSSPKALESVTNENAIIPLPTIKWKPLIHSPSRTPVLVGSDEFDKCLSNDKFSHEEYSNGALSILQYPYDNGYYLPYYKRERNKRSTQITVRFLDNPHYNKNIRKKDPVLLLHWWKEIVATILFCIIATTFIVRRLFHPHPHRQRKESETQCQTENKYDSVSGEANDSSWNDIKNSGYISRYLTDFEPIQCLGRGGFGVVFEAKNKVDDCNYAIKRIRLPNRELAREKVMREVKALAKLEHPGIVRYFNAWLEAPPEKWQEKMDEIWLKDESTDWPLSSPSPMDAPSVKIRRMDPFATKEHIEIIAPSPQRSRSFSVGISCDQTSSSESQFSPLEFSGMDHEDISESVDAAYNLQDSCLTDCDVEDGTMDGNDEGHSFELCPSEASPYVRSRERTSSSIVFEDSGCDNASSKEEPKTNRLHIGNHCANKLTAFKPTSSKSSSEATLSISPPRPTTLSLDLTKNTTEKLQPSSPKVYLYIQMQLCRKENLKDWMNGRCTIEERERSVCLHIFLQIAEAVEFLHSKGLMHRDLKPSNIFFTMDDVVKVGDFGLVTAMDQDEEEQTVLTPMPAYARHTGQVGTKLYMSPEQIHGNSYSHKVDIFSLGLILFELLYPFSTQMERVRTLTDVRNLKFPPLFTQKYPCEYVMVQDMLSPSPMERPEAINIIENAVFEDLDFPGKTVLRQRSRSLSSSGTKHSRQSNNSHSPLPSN
How it was run: as §1

CK1gamma3 = biological target: T26, CK1gamma3 (Homo sapiens, UniProt Q9Y6M4)
T26 construct: either as full-length or enzymatically active fragments; purchased ProQinase GmbH (Reaction Biology)
How it was run: as §1

PIM1 = biological target: T27, PIM1 (Homo sapiens, UniProt P11309)
T27 construct: either as full-length or enzymatically active fragments; purchased ProQinase GmbH (Reaction Biology)
How it was run: as §1

PAK4 = biological target: T28, PAK4 (Homo sapiens, UniProt O96013)
T28 construct: either as full-length or enzymatically active fragments; purchased ProQinase GmbH (Reaction Biology)
T28 sequence (O96013 whole entry, the tested form may be a part): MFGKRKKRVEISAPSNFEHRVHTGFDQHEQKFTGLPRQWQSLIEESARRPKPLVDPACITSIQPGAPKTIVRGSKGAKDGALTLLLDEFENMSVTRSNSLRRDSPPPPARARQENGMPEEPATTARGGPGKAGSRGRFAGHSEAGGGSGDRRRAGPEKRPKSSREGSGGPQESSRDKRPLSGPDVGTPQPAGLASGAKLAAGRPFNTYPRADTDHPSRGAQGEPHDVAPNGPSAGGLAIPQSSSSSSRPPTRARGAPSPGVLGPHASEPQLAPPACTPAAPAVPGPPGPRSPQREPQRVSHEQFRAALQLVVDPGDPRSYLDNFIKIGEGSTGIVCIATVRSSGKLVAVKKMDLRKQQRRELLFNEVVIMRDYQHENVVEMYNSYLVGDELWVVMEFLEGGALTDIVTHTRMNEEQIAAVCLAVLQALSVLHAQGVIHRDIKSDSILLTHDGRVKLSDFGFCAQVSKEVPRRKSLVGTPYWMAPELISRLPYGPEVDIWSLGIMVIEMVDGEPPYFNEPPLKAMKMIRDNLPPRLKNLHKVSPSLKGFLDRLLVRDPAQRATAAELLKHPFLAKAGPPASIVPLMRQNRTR
How it was run: as §1

PDGFRbeta = biological target: T29, PDGFRbeta (Homo sapiens, UniProt P09619)
T29 construct: either as full-length or enzymatically active fragments; purchased ProQinase GmbH (Reaction Biology)
How it was run: as §1

CAMK2G = biological target: T30, CAMK2G (Homo sapiens, UniProt Q13555)
T30 construct: either as full-length or enzymatically active fragments; purchased ProQinase GmbH (Reaction Biology)
T30 sequence (Q13555 whole entry, the tested form may be a part): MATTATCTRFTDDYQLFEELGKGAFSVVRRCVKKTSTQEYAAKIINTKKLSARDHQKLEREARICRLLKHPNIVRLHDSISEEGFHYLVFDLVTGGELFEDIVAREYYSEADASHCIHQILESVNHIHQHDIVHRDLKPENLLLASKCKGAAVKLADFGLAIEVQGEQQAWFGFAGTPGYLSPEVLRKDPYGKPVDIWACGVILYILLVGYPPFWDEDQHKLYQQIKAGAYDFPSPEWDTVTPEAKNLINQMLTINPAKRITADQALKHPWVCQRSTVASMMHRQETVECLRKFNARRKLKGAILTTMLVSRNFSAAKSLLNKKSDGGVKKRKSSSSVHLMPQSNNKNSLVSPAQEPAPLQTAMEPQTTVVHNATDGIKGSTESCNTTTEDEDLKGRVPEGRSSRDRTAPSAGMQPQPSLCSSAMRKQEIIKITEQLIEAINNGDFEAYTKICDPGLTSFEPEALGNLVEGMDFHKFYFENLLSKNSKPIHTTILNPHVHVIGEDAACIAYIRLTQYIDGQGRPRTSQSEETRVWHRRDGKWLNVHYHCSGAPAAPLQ
How it was run: as §1

Question: For C=CC(=O)Nc1ccc(C(=O)N2CC[C@@H](Nc3ncc(C#N)cn3)C2)cc1 [Compound 4, (R)-N-(4-(3-((5-cyanopyrimidin-2-yl)amino)pyrrolidine-1-carbonyl)phenyl)acrylamide], which inhibition at 1 µM (CDK1/CycE1) is on record?
Answer: Its inhibition at 1 µM is 11%.

Question: And the inhibition at 1 µM (PAK7)?
Answer: Its inhibition at 1 µM is 12%.

Question: And the inhibition at 1 µM (VRK2)?
Answer: The inhibition at 1 µM was -16%.

Question: What about the inhibition at 1 µM (MAPKAPK5) of the same molecule?
Answer: Its inhibition at 1 µM is -1%.

Question: What about the inhibition at 1 µM (MEK5) of the same molecule?
Answer: Its inhibition at 1 µM is 23%.

Question: What about the inhibition at 1 µM (MAP3K9) of the same molecule?
Answer: Its inhibition at 1 µM is -4%.

Question: What about the inhibition at 1 µM (DCAMKL2) of the same molecule?
Answer: The inhibition at 1 µM was 0%.

Question: What about the inhibition at 1 µM (PKN3) of the same molecule?
Answer: Its inhibition at 1 µM is -2%.

Question: And the inhibition at 1 µM (CDK13/CycK)?
Answer: The inhibition at 1 µM was 87%.

Question: And the inhibition at 1 µM (BLK)?
Answer: Its inhibition at 1 µM is -2%.

Question: What about the inhibition at 1 µM (TYK2) of the same molecule?
Answer: The inhibition at 1 µM was 6%.

Question: And the inhibition at 1 µM (MAP3K7/MAP3K7IP1)?
Answer: The inhibition at 1 µM was 2%.

Question: What about the inhibition at 1 µM (HRI) of the same molecule?
Answer: The inhibition at 1 µM was -8%.

Question: And the inhibition at 1 µM (PLK3)?
Answer: Its inhibition at 1 µM is 13%.

Question: What about the inhibition at 1 µM (CHK2) of the same molecule?
Answer: The inhibition at 1 µM was 5%.

Question: And the inhibition at 1 µM (S6K)?
Answer: The inhibition at 1 µM was 9%.

Question: What about the inhibition at 1 µM (EEF2K) of the same molecule?
Answer: Its inhibition at 1 µM is 15%.

Question: What about the inhibition at 1 µM (RPS6KA5) of the same molecule?
Answer: Its inhibition at 1 µM is 10%.

Question: And the inhibition at 1 µM (MEKK3)?
Answer: Its inhibition at 1 µM is 1%.

Question: And the inhibition at 1 µM (CDK2/CycE1)?
Answer: The inhibition at 1 µM was 9%.

Question: What about the inhibition at 1 µM (CDK2/CycA2) of the same molecule?
Answer: Its inhibition at 1 µM is 15%.

Question: And the inhibition at 1 µM (INSRR)?
Answer: Its inhibition at 1 µM is 5%.

Question: What about the inhibition at 1 µM (NEK2) of the same molecule?
Answer: Its inhibition at 1 µM is -8%.

Question: What about the inhibition at 1 µM (WNK3) of the same molecule?
Answer: Its inhibition at 1 µM is -6%.

Question: What about the inhibition at 1 µM (EIF2AK3) of the same molecule?
Answer: The inhibition at 1 µM was 14%.

Question: What about the inhibition at 1 µM (CK1gamma3) of the same molecule?
Answer: The inhibition at 1 µM was -8%.

Question: What about the inhibition at 1 µM (PIM1) of the same molecule?
Answer: The inhibition at 1 µM was 3%.

Question: And the inhibition at 1 µM (PAK4)?
Answer: The inhibition at 1 µM was -3%.

Question: And the inhibition at 1 µM (PDGFRbeta)?
Answer: Its inhibition at 1 µM is 6%.

Question: And the inhibition at 1 µM (CAMK2G)?
Answer: Its inhibition at 1 µM is 5%.
